Assay: Melting temperatures of 20mer nucleic acid duplexes in formamide-water mixtures
Format: physicochemical
Conditions: for Melting Temperatures in Formamide: 1.5 μM single strand, 100 mM NaCl, 10 mM K-phosphate pH 7, 0.1 mM EDTA
Procedure: A mismatch in 50% formamide in the DNA strand lowers the melting temperature of the duplex containing LNA-8 from 72 to 66 to 62° C.
As the results in the Tables show, useful melting temperatures are obtained when the oligonucleotides bound in duplex contain at least 15 nucleotide units that have 2′-OMe ribonucleotides as their building blocks. Comparably useful melting temperatures are obtained when the oligonucleotides contain locked nucleic acid (LNA) carbohydrate analogs, as described in [Koshkin et al., 1998]. The data in the Tables also makes clear that the binding between two complementary DNA strands of this length is not useful in 50% formamide, as it is below 30° C. at 50% formamide.

## DNA:DNA: 20mer DNA duplex of strand-1 5′-CTTCAGGTACTGAGTCAAGC-3′ (SEQ ID NO 3) and strand-2 (SEQ ID NO 4) (chain 1 CTTCAGGTACTGAGTCAAGC; chain 2 GCTTGACTCAGTACCTGAAG; DNA, backbone and methylation of C not given here)
0 % formamide (Table 3)
  Tm (Stability of Duplexes in Formamide and Water): 61 °C
0 percent formamide
  Melting Temperatures in Formamide: 62 °C
25 % formamide (Table 3)
  Tm (Stability of Duplexes in Formamide and Water): 44 °C
25 percent formamide
  Melting Temperatures in Formamide: 46 °C
50 % formamide (Table 3)
  Tm (Stability of Duplexes in Formamide and Water): 28 °C
50 percent formamide
  Melting Temperatures in Formamide: 29 °C
70 % formamide (Table 3)
  Tm (Stability of Duplexes in Formamide and Water): <20 °C
70 % formamide (Table 3), listed as model 20 mer
  Tm (Stability of Duplexes in Formamide and Water): ≤ 20 °C

## RNA:RNA: 20mer RNA duplex 5′-CUUCAGGUACUGAGUCAAGC-3′ (SEQ ID NO 1) with 3′-GAAGUCCAUGACUCAGUUCG-5′ (SEQ ID NO 2) (chain 2 GCUUGACUCAGUACCUGAAG; RNA, backbone not given here)
0 % formamide (Table 3)
  Tm (Stability of Duplexes in Formamide and Water): 73 °C
0 percent formamide
  Melting Temperatures in Formamide: 73 °C
25 % formamide (Table 3)
  Tm (Stability of Duplexes in Formamide and Water): 60 °C
25 percent formamide
  Melting Temperatures in Formamide: 61 °C
50 % formamide (Table 3)
  Tm (Stability of Duplexes in Formamide and Water): 48 °C
50 percent formamide
  Melting Temperatures in Formamide: 49 °C
70 % formamide (Table 3)
  Tm (Stability of Duplexes in Formamide and Water): 40 °C
90 % formamide (Table 3)
  Tm (Stability of Duplexes in Formamide and Water): <25 °C

— US20110117554A1, “Formamide-containing mixtures for detecting nucleic acids” (priority 2009, published 2011)
